Legend:
[1] = molecular target: T1, Fructose-1,6-bisphosphatase 1 (Homo sapiens, UniProt P09467); assay: Inhibition of human liver fructose-1,6-bisphosphatase in presence of fructose-2,6-bisphosphate
T1 sequence (P09467 whole entry): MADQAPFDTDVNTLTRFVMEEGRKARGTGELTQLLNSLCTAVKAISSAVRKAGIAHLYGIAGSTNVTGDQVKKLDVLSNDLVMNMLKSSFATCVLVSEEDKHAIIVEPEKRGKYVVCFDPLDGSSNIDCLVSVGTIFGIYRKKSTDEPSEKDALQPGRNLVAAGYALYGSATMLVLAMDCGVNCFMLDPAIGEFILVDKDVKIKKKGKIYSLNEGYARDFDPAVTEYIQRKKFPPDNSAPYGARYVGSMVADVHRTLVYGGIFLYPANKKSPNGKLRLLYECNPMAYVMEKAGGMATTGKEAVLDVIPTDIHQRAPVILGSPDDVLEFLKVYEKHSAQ

[2] = molecular target: T1, Fructose-1,6-bisphosphatase 1; assay: Inhibition of human liver fructose-1,6-bisphosphatase
[3] = Half life in mouse at 10 mg/kg, po; assay type: ADME, organism-based; set-up: dose 10 mg/kg, route oral; settings: in vivo
[4] = Bioavailability in mouse at 10 mg/kg, po; assay type: ADME, organism-based; settings: in vivo
[5] = Lipophilicity, Log D at pH 7.4; assay type: physicochemical; settings: buffer
[6] = Dissociation constant, pKa of the compound; assay type: physicochemical
[7] = Half life in mouse at 9.68 mg/kg, po; assay type: ADME, organism-based; set-up: dose 9.68 mg/kg, route oral; settings: in vivo
[8] = Bioavailability in mouse at 9.68 mg/kg, po; assay type: ADME, organism-based; settings: in vivo

SMILES	IC50 [1] [µM]	IC50 [2] [µM]	also measured
O=C(NC[C@H]1CC[C@H](CNC(=O)NS(=O)(=O)c2cccc(Cl)c2)CC1)NS(=O)(=O)c1cccc(Cl)c1	0.016	0.028	
Cc1cccc(S(=O)(=O)NC(=O)NCCS)c1	10.6	20.5	
O=C(NCCSSCCNC(=O)NS(=O)(=O)c1cccc(Cl)c1)NS(=O)(=O)c1cccc(Cl)c1	0.01	0.055	
O=C(NCCCCCCCCNC(=O)NS(=O)(=O)c1cccc(Cl)c1)NS(=O)(=O)c1cccc(Cl)c1	0.017	0.045	
O=C(NCCCCCNC(=O)NS(=O)(=O)c1cccc(Cl)c1)NS(=O)(=O)c1cccc(Cl)c1	0.019	0.05	
Cc1cccc(S(=O)(=O)NC(=O)NCCC#CCCNC(=O)NS(=O)(=O)c2cccc(C)c2)c1	0.012	0.095	
Cc1cccc(S(=O)(=O)NC(=O)NCCCCCCCNC(=O)NS(=O)(=O)c2cccc(C)c2)c1	0.005	0.012	half-life [3]: 3 h; bioavailability [4]: 100%
CCCCNC(=O)NS(=O)(=O)c1cccc(C)c1	86.8	178	
Cc1cccc(S(=O)(=O)NC(=O)NCCCCCCNC(=O)NS(=O)(=O)c2cccc(C)c2)c1	0.012	0.024	
Cc1cccc(S(=O)(=O)NC(=O)NCCCCCCCCNC(=O)NS(=O)(=O)c2cccc(C)c2)c1	0.008	0.035	
Cc1cccc(S(=O)(=O)NC(=O)NCCCNC(=O)NS(=O)(=O)c2cccc(C)c2)c1	38.5	> 100	
Cc1cccc(S(=O)(=O)NC(=O)NCC/C=C/CCNC(=O)NS(=O)(=O)c2cccc(C)c2)c1	0.028	0.068	
O=C(NCCCOCCCNC(=O)NS(=O)(=O)c1cccc(Cl)c1)NS(=O)(=O)c1cccc(Cl)c1	0.057	0.125	
O=C(NCC/C=C/CCNC(=O)NS(=O)(=O)c1cccc(Cl)c1)NS(=O)(=O)c1cccc(Cl)c1	0.014	0.04	
Cc1cccc(S(=O)(=O)NC(=O)NCCOCCNC(=O)NS(=O)(=O)c2cccc(C)c2)c1	0.151	0.827	
CCCCNC(=O)NS(=O)(=O)c1cccc(Cl)c1	134	196	
Cc1cccc(S(=O)(=O)NC(=O)NCc2cccc(CNC(=O)NS(=O)(=O)c3cccc(C)c3)c2)c1	0.006	0.012	

SMILES	IC50 [1] [µM]	IC50 [2] [µM]	also measured
Cc1cccc(S(=O)(=O)NC(=O)NCc2ccc(CNC(=O)NS(=O)(=O)c3cccc(C)c3)cc2)c1	0.002	0.003	
O=C(NCCCNCCCNC(=O)NS(=O)(=O)c1cccc(Cl)c1)NS(=O)(=O)c1cccc(Cl)c1	13.7	43.8	
Cc1cccc(S(=O)(=O)NC(=O)NCCCCNC(=O)NS(=O)(=O)c2cccc(C)c2)c1	0.542	3.4	
Cc1cccc(S(=O)(=O)NC(=O)NCCSCCNC(=O)NS(=O)(=O)c2cccc(C)c2)c1	0.018	0.07	
Cc1cccc(S(=O)(=O)NC(=O)NCCCCCNC(=O)NS(=O)(=O)c2cccc(C)c2)c1	0.022	0.072	
Nc1ccc(S(=O)(=O)NC(=O)NCCS)cc1		1.6	
O=C(NCCCCCCCNC(=O)NS(=O)(=O)c1cccc(Cl)c1)NS(=O)(=O)c1cccc(Cl)c1	0.004		logD [5]: -0.43; pKa [6]: 5.12
Cc1cccc(S(=O)(=O)NC(=O)NCCNC(=O)NS(=O)(=O)c2cccc(C)c2)c1	> 100	> 100	
O=C(NCCCCCCNC(=O)NS(=O)(=O)c1cccc(Cl)c1)NS(=O)(=O)c1cccc(Cl)c1	0.008		logD [5]: -0.93; half-life [7]: 1.83 h; pKa [6]: 5.35; bioavailability [8]: 108%
CCCNC(=O)NS(=O)(=O)c1cccc(Cl)c1	234	690	
O=C(NCCCCNC(=O)NS(=O)(=O)c1cccc(Cl)c1)NS(=O)(=O)c1cccc(Cl)c1	0.264	2.75	
Cc1cccc(S(=O)(=O)NC(=O)NCCSSCCNC(=O)NS(=O)(=O)c2cccc(C)c2)c1	0.012	0.029	
CSCCNC(=O)NS(=O)(=O)c1cccc(Cl)c1	277	515	
Cc1cccc(S(=O)(=O)NC(=O)NCCNCCNC(=O)NS(=O)(=O)c2cccc(C)c2)c1	> 100	> 100	
CCCNC(=O)NS(=O)(=O)c1cccc(C)c1	320	> 1000	
O=C(NCc1ccc(CNC(=O)NS(=O)(=O)c2cccc(Cl)c2)cc1)NS(=O)(=O)c1cccc(Cl)c1	0.004	0.006	

— ChEMBL document CHEMBL1155936, “Allosteric FBPase inhibitors gain 10(5) times in potency when simultaneously binding two neighboring AMP sites” (Bioorg Med Chem Lett, 2008)
